The nature of data set [1]: Circulating glucose by finger stick during insulin pulse treatments. Particulars: during the first treatment, with ingested carbohydrates; all examples. Type of data set: in vivo, human. The text has this: In prototype testing, a commercially available LIFESCAN ONETOUCH ULTRA glucose meter was used to measure the subject's baseline and subsequent circulating blood glucose level. The glucose meter was calibrated according to the manufacturer's recommendations. A blood sampler test strip was then inserted into the blood glucose meter as directed by the manufacturer. The glucose meter automatically turned on upon proper insertion of the test strip into the meter. This commercially available glucose meter utilized a lancet to prick the subject's fingertip or arm. After pricking the skin, the user gently massages the area to help form a round drop of blood (about one micro-liter in volume) on the skin surface. The subject then caused the blood sample to be absorbed onto the blood sampler test strip per the manufacturer's recommended procedure. If adequate blood was absorbed by the blood sampler test strip, the blood glucose level was automatically calculated and shown on the instrument's display panel in approximately 5 seconds. […]
For all of the above listed examples, after the initial few days of treatment, the patients underwent treatment once a week, each treatment day consisting of three infusions of insulin accompanied by ingestion of carbohydrates. […] The patients' circulating glucose were measured once every thirty minutes by the finger stick method currently used by most diabetic patients. […]

The conditions of data set [2]: stated without source; cited from earlier work.

For orientation: half-life means the time in which the quantity being followed falls by half. For the substance insulin, the “rise in circulating glucose levels” value in data set [1] lay within 100 to 150 mg/dL. Moreover, in data set [2], the half-life is 5 min.

(Values after US20060122099A1, “Method for infusing insulin to a subject to improve impaired total body tissue glucose processing” (priority 2004, published 2006).)
